Measured values as given in US11834454B2, “Alkynylphenylbenzamide compounds and applications thereof” (SHENZHEN NEWDEL BIOTECH CO., LTD., priority 2021, dated 2023).
Like-named read-outs stand apart in the source and are kept apart here. One block for each compound: values may come before it.

Legend:
Kit = Kit (Homo sapiens, UniProt P10721); assay: Kinase selectivity, Z'-LYTE
Description: (§4) Enzymatic reaction: In a 384-well plate, added 5 μL of enzyme-substrate system [50 mM 4-hydroxyethylpiperazineethanesulfonic acid (HEPES) pH 7.5, 0.01% BRIJ-35, 10 mM of magnesium chloride (MgCl2), 1 mM of ethylene glycol bis(2-aminoethyl ether)tetraacetic acid (EGTA), 2 μM of Tyr 01 peptide substrate], transferred 5 nL of compound (concentration gradient) using an Echo520 Ultra-Micro Liquid Pipetting System. […] Shaked and mixed, then centrifuged, and reacted at 30° C. in the dark for 1.5 hours.

SRC = SRC (Homo sapiens, UniProt P12931); assay: Kinase selectivity, Z'-LYTE
Description: as §4

PDGFRA = PDGFRA (Homo sapiens, UniProt P16234); assay: Kinase selectivity, Z'-LYTE
Description: as §4

VEGFR2 = VEGFR2 (Homo sapiens, UniProt P35968); assay: Kinase selectivity, Z'-LYTE
Description: as §4

Bcr-Abl = Bcr-Abl (Homo sapiens, UniProt P00519); assay: Kinase selectivity, Z'-LYTE
Description: as §4

PDGFRB = PDGFRB (Homo sapiens, UniProt P09619); assay: Kinase selectivity, Z'-LYTE
Description: as §4

RET = RET (Homo sapiens, UniProt P07949); assay: Kinase selectivity, Z'-LYTE
Description: as §4

[1] = SD rats, cited from earlier work
TRKB = target: T1, TRKB (Homo sapiens, UniProt Q16620); assay: Z'-LYTE kinase activity detection, TRKB; type: biochemical
T1 construct: purchased American Life Technologies PV3616

TRKC = target: T2, TRKC (Homo sapiens, UniProt Q16288); assay: Z'-LYTE kinase activity detection, TRKC; type: biochemical
T2 construct: purchased American Life Technologies PV3617

BaF3-ETV6-NTRK2 = target: T3, BaF3-ETV6-NTRK2 (Homo sapiens, UniProt Q16620); assay: Cell proliferation inhibition, Ba/F3-TRKs stable strain (CCK-8); type: cell-based, mouse; details: 72 hours, read-out: cell viability IC50 ETV6-NTRK2
T3 construct: fused on or other part: P41212 (Transcription factor ETV6)
Description: (§1) The BaF3 cells (mouse pre-B cells) used in this experiment were purchased from the Japanese Cell Bank. All of the monoclonal stable strains, BaF3-CD74-NTRK1, BaF3-ETV6-NTRK2 and BaF3-ETV6-NTRK3 were constructed by our laboratory, and were identified by experiments such as positive control, protein expression and gene sequencing.
(§2) The brief steps of stable strain construction were as follows: constructed pCDNA3.1(+) plasmid vector carrying genes such as CD74-NTRK1, ETV6-NTRK2, ETV6-NTRK3; the plasmid was electroporated into Ba/F3 cells using Amaxa® Cell Line Nucleofector® Kit V; 48 hours after electroporation, geneticin (G418) with a final concentration of 1000 μg/mL was added to screen for two weeks, and the interleukin 3 (IL3) was removed to continue screening to obtain polyclonal stable strains; and then single clones were selected by limiting dilution method; the stable strains were then identified by the positive drugs, Western Blot (WB), and gene sequencing; the correct monoclonal through identification can be used to study the cell proliferation inhibitory activity of the inhibitors.
(§3) Cell proliferation inhibitory activity study: The cells in logarithmic growth phase were seeded into 96-well plates at 8000-12000 cells/well, and the inhibitors at different concentrations of (0-10 μM) were added the next day, and the culture was continued for 72 hours; then 10 μL of Cell Counting Kit-8 Cell Counting Reagent (CCK-8 Reagent) was added to each well, and continued to incubate for 1-3 hours; then its absorbance at 450 nm and 650 nm were measured with a super microplate reader. The median inhibitory concentration (IC50) was calculated using medical graphing software (GraphPad Prism 8.0.0).

BaF3-CD74-NTRK1 = target: T4, BaF3-CD74-NTRK1 (Homo sapiens, UniProt P04629); assay: as above; type: cell-based, mouse; details: 72 hours, read-out: cell viability IC50 CD74-NTRK1
T4 construct: fused on or other part: P04233 (HLA class II histocompatibility antigen gamma chain)
Description: as §1, §2, §3

BaF3-ETV6-NTRK3 = target: T5, BaF3-ETV6-NTRK3 (Homo sapiens, UniProt Q16288); assay: as above; type: cell-based, mouse; details: 72 hours, read-out: cell viability IC50 ETV6-NTRK3
T5 construct: fused on or other part: P41212 (Transcription factor ETV6)
Description: as §1, §2, §3

TRKA = target: T6, TRKA (Homo sapiens, UniProt P04629); assay: Z'-LYTE kinase activity detection, TRKA; type: biochemical
T6 construct: purchased American Life Technologies PV3144

T5 sequence (Q16288 whole entry, the tested form may be a part): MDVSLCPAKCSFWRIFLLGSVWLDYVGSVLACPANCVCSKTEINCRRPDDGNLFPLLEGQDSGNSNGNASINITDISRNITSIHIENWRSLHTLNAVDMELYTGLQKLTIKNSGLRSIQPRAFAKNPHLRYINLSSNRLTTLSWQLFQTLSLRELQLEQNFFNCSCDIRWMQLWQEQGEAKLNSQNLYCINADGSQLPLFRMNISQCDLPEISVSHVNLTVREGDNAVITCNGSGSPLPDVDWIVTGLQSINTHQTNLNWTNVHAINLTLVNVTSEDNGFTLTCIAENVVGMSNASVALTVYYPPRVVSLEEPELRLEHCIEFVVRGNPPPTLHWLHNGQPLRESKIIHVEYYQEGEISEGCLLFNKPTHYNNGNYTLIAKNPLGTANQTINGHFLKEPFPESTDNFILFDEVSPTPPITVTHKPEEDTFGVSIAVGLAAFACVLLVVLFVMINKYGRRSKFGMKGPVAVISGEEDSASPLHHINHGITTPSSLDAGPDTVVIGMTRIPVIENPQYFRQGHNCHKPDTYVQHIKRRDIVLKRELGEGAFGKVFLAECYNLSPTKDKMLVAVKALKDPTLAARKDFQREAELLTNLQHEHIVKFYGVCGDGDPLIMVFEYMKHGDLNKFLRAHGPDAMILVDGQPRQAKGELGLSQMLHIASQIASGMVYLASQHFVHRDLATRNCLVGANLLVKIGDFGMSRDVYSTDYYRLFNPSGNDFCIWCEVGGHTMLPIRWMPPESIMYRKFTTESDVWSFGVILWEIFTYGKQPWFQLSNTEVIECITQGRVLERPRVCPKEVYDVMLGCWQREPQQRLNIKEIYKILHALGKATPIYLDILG
VEGFR2, sequence (P35968 20-1356, species assumed): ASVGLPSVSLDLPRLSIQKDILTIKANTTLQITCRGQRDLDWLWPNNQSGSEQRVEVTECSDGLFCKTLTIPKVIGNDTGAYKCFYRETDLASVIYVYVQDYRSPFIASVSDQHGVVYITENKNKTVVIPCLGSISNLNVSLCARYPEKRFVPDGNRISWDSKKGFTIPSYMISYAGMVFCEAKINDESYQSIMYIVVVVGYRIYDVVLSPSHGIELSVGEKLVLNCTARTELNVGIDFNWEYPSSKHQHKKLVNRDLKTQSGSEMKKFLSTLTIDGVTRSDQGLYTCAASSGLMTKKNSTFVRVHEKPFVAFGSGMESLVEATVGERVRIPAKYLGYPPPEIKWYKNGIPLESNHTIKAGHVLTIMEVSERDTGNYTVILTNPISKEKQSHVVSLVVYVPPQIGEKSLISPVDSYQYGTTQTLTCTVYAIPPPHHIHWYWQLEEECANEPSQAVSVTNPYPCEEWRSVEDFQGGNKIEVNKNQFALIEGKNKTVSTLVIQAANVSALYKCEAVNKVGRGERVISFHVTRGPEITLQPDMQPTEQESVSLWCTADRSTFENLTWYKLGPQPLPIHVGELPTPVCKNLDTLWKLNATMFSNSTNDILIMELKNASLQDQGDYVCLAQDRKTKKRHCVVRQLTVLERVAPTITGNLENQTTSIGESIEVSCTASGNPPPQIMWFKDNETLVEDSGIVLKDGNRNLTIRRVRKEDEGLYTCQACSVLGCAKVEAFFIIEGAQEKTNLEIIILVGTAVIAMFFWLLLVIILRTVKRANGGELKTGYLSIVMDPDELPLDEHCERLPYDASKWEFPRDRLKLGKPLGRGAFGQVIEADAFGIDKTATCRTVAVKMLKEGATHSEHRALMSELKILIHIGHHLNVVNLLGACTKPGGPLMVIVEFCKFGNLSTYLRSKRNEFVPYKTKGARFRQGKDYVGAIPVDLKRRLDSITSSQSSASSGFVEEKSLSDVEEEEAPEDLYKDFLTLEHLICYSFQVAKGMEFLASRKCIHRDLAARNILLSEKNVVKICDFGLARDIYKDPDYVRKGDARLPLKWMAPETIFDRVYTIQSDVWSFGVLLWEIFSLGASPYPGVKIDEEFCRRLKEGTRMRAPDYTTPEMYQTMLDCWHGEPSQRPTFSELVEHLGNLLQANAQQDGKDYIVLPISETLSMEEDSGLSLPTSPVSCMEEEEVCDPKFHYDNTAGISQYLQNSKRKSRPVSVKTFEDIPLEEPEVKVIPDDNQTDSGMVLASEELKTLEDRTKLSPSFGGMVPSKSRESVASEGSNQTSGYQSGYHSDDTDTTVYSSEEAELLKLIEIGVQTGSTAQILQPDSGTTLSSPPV
PDGFRB, sequence (P09619 33-1106, species assumed): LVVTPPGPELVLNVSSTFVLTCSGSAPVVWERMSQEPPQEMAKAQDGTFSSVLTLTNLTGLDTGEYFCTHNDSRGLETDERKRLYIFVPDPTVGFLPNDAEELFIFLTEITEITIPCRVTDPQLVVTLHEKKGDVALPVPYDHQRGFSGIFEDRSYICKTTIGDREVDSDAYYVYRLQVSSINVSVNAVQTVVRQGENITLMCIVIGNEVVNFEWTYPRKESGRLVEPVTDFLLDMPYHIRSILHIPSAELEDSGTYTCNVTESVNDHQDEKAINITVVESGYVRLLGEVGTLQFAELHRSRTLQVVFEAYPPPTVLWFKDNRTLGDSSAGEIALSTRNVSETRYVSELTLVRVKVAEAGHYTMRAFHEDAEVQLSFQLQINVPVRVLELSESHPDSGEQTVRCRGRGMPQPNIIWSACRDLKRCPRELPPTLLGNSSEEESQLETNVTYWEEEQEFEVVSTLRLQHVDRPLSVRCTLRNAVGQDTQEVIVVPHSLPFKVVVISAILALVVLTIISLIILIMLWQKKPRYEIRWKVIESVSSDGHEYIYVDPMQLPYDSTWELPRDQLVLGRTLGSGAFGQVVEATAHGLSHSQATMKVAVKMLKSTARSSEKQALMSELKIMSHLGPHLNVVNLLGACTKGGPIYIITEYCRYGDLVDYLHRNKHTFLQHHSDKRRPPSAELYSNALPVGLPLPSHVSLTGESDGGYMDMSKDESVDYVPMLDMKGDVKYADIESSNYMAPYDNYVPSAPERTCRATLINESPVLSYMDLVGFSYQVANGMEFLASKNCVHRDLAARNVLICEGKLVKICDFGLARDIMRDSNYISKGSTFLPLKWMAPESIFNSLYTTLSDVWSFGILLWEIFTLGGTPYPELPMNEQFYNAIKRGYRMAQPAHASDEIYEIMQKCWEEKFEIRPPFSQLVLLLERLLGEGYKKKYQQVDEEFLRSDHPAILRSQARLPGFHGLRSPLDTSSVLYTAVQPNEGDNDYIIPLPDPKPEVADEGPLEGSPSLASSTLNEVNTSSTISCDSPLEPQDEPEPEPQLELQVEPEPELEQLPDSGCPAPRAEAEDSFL
RET, sequence (P07949 29-1114, species assumed): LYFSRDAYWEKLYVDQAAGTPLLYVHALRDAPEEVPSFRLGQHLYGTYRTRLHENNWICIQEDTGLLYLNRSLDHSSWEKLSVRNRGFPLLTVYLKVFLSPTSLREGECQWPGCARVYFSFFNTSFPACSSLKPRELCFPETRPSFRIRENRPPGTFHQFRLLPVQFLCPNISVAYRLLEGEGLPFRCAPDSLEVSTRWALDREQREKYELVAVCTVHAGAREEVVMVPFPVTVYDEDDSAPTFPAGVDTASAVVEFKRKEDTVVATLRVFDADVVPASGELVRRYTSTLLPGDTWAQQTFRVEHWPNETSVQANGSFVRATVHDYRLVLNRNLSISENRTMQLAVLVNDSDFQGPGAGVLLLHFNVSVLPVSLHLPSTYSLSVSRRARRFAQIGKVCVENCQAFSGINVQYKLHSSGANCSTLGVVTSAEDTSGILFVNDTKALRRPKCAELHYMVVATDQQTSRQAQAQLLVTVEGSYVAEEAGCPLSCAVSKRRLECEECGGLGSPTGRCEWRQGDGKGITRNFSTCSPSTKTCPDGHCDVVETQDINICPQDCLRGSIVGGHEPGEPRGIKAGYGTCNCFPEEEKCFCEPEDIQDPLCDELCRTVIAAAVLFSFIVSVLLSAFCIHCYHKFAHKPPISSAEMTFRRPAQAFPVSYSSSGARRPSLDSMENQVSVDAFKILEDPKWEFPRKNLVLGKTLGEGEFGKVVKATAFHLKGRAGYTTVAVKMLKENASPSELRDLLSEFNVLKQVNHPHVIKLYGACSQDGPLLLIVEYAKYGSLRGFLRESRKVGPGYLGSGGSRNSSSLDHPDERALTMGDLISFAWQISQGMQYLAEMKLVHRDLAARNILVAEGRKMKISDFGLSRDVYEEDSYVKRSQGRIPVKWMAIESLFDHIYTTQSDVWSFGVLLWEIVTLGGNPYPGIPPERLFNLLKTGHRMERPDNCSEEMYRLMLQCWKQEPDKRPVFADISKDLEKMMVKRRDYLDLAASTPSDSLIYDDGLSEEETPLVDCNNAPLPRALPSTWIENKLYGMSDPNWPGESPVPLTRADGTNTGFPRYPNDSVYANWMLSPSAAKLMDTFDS
SRC, sequence (P12931 whole entry, species assumed): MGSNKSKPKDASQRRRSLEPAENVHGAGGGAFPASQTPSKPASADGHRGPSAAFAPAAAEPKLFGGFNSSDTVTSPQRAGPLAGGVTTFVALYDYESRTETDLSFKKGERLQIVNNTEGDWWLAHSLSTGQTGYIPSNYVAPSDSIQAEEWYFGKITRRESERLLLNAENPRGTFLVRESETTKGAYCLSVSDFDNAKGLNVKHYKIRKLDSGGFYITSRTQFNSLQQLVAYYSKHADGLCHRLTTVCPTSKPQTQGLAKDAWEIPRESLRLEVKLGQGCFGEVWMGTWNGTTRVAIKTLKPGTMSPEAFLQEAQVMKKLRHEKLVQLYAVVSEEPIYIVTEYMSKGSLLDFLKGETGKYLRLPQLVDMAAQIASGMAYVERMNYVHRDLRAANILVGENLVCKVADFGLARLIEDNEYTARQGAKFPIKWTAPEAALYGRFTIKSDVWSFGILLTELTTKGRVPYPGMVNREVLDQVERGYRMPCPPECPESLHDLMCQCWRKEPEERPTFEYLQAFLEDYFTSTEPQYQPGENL

IC50 (Kit): 93.5 nM
IC50 (SRC): 20.3 nM
IC50 (PDGFRA): 19.9 nM
IC50 (VEGFR2): 18.9 nM
IC50 (Bcr-Abl): 129 nM
IC50 (PDGFRB): 119 nM
IC50 (RET): 10.7 nM
SMILES: Cc1ccc(C(=O)Nc2cc(Cl)cc(C(F)(F)F)c2)cc1C#Cc1cnc2ccc(N3CCC(O)CC3)nn12 [XS4-128, N-(3-Chloro-5-(trifluoromethyl)phenyl)-3-((6-(4-hydroxypiperidin-1-yl)imidazo[1,2-B]pyridazine-3-yl)ethynyl)-4-methylbenzamide, reference compound]

SMILES: Cc1c(C#Cc2cnc3cnc(-c4ccc(N)cc4)cn23)cccc1C(=O)Nc1cc(CN2CCN(C)CC2)cc(C(C)C)c1 [Compound 9o]
AUC (0-∞) ([1]; intravenous injection, 5 mg/kg): 810.45 ng·h/mL
AUC(0-t) ([1]; intravenous injection, 5 mg/kg): 804.65 ng·h/mL
Clearance rate ([1]; intravenous injection, 5 mg/kg): 21.0085 mL/min/kg
Cmax ([1]; intravenous injection, 5 mg/kg): 1968.37 ng/mL
Tmax ([1]; intravenous injection, 5 mg/kg): 0.083 h
half-life ([1]; intravenous injection, 5 mg/kg): 2.03 h
BA ([1]; oral 25 mg/kg vs intravenous 5 mg/kg): 10.72%
AUC (0-∞) ([1]; oral, 25 mg/kg): 445.18 ng·h/mL
AUC(0-t) ([1]; oral, 25 mg/kg): 431.49 ng·h/mL
Cmax ([1]; oral, 25 mg/kg): 63.3 ng/mL
Tmax ([1]; oral, 25 mg/kg): 2 h
half-life ([1]; oral, 25 mg/kg): 4.77 h

IC50 (TRKB): < 10 nM
IC50 (TRKC): < 10 nM
IC50 (TRKA): 10 to 100 nM
SMILES: Cc1c(C#Cc2cnc3ccc(N4CCN(C5COC5)CC4)nn23)cccc1C(=O)Nc1cc(Cl)cc(C(F)(F)F)c1 [XS3-138, N-(3-CHLORO-5-(TRIFLUOROMETHYL)PHENYL)-2-METHYL-3-((6-(4-(OXETAN-3-YL)PIPERAZINE)-1-YL)IMIDAZO[1,2-B]PYRIDAZIN-3-YL)ETHYNYL)BENZAMIDE]
IC50 (BaF3-ETV6-NTRK2): 10 to 100 nM
IC50 (BaF3-CD74-NTRK1): 10 to 100 nM
IC50 (BaF3-ETV6-NTRK3): < 10 nM
